Measured values as given in patent US20180187184A1, “NOVEL CONSTRUCTS AND SCREENING METHODS” (Systasy Bioscience GmbH, priority 2016, published 2018).
Like-named read-outs stand apart in the source and are kept apart here.

Legend:
primary neurons = assay: Rotenone dose-response cell viability assay (nuclei count, genomic DNA and total RNA quantification); format: cell-based, mouse; details: for IC50: Mus musculus, Primary neuron, 168 h
Experimental: Cells were incubated under appropriate culturing conditions until DIV14.
Cell nuclei were stained on DIV14 with Hoechst dye and evaluated with a Zeiss Observer Z1 microscope. Subsequently, the neuron cultures were lysed and gDNA as well as total RNA was isolated using the Qiagen AllPrep DNA/RNA Mini Kit. The gDNA and total RNA concentrations were determined using a UV spectrophotometer.
The present inventors first evaluated changes in the abundance of genomic DNA and total RNA in response to cytotoxic stress within a primary neuron population.

E-SARE sensor = assay: E-SARE luciferase activity in primary neurons upon stimulation; format: cell-based, mouse; details: DIV14
Source text: For multiplate assays, cells were transfected (for cell lines) using Lipofectamine2000 (Invitrogen) according to the manufacturer's instructions or infected (for primary neurons) by an E-SARE-luciferase containing AAV with 500-1000 AAV GCs per cell.
The assay compares an unstimulated response with a stimulated response.
Finally, the E-SARE sensor not only responds to neuronal silencing (TTX/APV) and synaptic stimulation (BIC/4-AP), but can also be induced by brain-derived neurotrophic factor (BDNF) which is a well-established stimulus with functions in neuronal differentiation and plasticity (FIG. 6C) (Park H and Poo M. Nat Rev Neurosci. 2013 January; 14(1):7-23). The optimized and validated E-SARE sensor has been subsequently used for developing the pooled RNAi screen in primary neurons.

E-SARE sensor activity (E-SARE sensor) | Molecule | IC50 (primary neurons; read-out: IC50, genomic DNA content) [nM] | IC50 (primary neurons; read-out: IC50, total RNA content) [nM] | IC50 (primary neurons; read-out: IC50, viable cells (pyknotic nuclei filtered out)) [nM] | reduction of genomic DNA content (primary neurons; rotenone concentrations above 100 nM, 7 days) [%]
 | C=C(C)[C@H]1Cc2c(ccc3c2O[C@@H]2COc4cc(OC)c(OC)cc4[C@@H]2C3=O)O1 [rotenone] | 40 | 15 | 14 | ~40
induced | brain-derived neurotrophic factor (protein, UniProt P23560 19-247, looked up, well-established stimulus with functions in neuronal differentiation and plasticity) Neurotrophic factor BDNF …: APMKEANIRGQGGLAYPGVRTHGTLESVNGPKAGSRGLTSLADTFEHVIEELLDEDQKVRPNEENNKDADLYTSRVMLSSQVPLEPPLLFLLEEYKNYLDAANMSMRVRRHSDPARRGELSVCDSISEWVTAADKKTAVDMSGGTVTVLEKVPVSKGQLKQYFYETKCNPMGYTKEGCRGIDKRHWNSQCRTTQSYVRALTMDSKKRIGWRFIRIDTSCVCTLTIKRGR |  |  |  | 
